Results as given in patent US20240158430A1, “NOVEL COMPOUND OR SALT THEREOF, AND ANTITUMOR ACTIVATOR CONTAINING SAME AS ACTIVE INGREDIENT” (AKITA UNIVERSITY, priority 2021, published 2024).
Where “and” joins values, the source holds several entries; their conditions need not be identical. Equal values may be shown once. Read-outs that look alike come from different tables or passages of the source.

Legend:
Safety and toxicity test = type: in vivo, mouse
Experimental: In vivo safety and toxicity of GO-Y199 were investigated. The method is as follows. As described above, the equivalent of 1 mg of GO-Y199 was injected into the tail vein, blood was collected from the orbital vein 7 days later, and a hemoglobin value (Hb), the number of white blood cells (WBC), and the number of platelets (Plt) were measured with Cell tac MEK-5258 (available from Nihon Kohden Corporation). A creatinine value (Cre), a total bilirubin value (T-Bil), and an AST value were subjected to outsourcing (measured in Skylight Biotech Inc.). FIG. 29 indicates change in body weight of mice after intravenous injection. FIG. 30 indicates photographs of the tail of the mouse after intravenous injection.

[1] = Blood concentration after intravenous injection; type: in vivo, BALB/cSlc-nu/+ mice; conditions: mouse, 1 mg tail vein
Experimental: The blood concentration of GO-Y199 after intravenous injection was investigated. The method is as follows. To BALB/cSlc-nu/+ mice, the equivalent of 1 mg of GO-Y199 was injected into the tail vein as described above, blood was collected from the orbital vein over time, and the serum was subjected to HPLC to measure the blood concentration of GO-Y199. FIG. 27 indicates results of HPLC analysis of blood after intravenous injection. FIG. 28 indicates results of changes over time in the blood concentration of GO-Y199 after intravenous injection.

Turbidity measurement = type: physicochemical
Experimental: The turbidity of various compounds was measured. The method is as follows. […] Curcumin was cloudy while GO-Y199 was clear. The solubility was measured with a turbidimeter (WZB-170 Portable Turbidimeter available from REX). The turbidity of the compound was corrected for concentration.
Subsequently, GO-Y206 and curcumin were adjusted to final concentrations of 1.25 μM and 5.00 μM, respectively, and their turbidities were measured.

NF-kB (p65) = experiment: Influence on NF-kB, immunohistochemistry in HCT116; type: cell-based; conditions: 2 μM, 24 hours, control 96.8±1.1%
Experimental: (§1) The influence of GO-Y199 on NF-kB (p65) was investigated. The method is as follows. 3×10^6 cells of the HCT116 cell line were added to a 10-cm plate, 2 μM of GO-Y199 was added after 24 hours, the cells were collected after 24 hours, embedded in iPGell (GenOStaff), and fixed in formalin, paraffin blocks were then prepared, and immuno-histochemistry was performed with an anti-NF-kB (p65) antibody. In addition, 2 μM and 5 μM of GO-Y199 were added, lysates were collected after 24 hours, and an expression level of NF-kB (p65) was analyzed using an ELISA-plate (NF-kBp65 (pS536) SimpleStep-ELISA-kit, Abcam). An amount of protein was corrected by the absorbance of A 280 nm. The upper part of FIG. 14 indicates photographs of the control group and the GO-Y199 (2 μM)-added group after 24 hours. The lower part of FIG. 14 indicates results of the t-test of these groups after 24 hours. FIG. 15 indicates the comparison results of the NF-kB inhibitory effect of GO-Y199 (2 μM, 5 μM)-added groups with respect to the control group.

fatty acid synthetase = experiment: Influence on fatty acid synthetase, ELISA; type: cell-based, Human; conditions: 4 μM vs control group
Experimental: as §1
The influence of GO-Y199 on fatty acid synthetase was investigated. The method is as described above. Protein quantification was performed using a Human Fatty acid synthase ELISA Kit (MyBioSource). FIG. 19 indicates the comparison result of the fatty acid synthetase inhibitory effect of the GO-Y199 (4 μM)-added group with respect to the control group.

[2] = system: gastric cancer cell line KATO III; experiment: Cell growth inhibitory activity, KATO III; type: cell-based
Experimental: (§2) The cell growth inhibitory activity against a colorectal cancer cell line HCT116 was measured. As an index of cell growth inhibitory activity, a concentration at which cell growth was inhibited by 50% as compared with a control (IC50) was used. The method is as follows. HCT116 was added to a 6-well plate by 5×10^4, compounds having various concentrations were added after 24 hours, and the number of cells was counted after 72 hours of culture. As the control, DMSO was used in an amount equal to the amount added in accordance with the addition concentration of the highest-concentration compound. The number of cells at each concentration relative to the control was expressed as a percentage.
(§3) The method is as described above.
The cell growth inhibitory activity (IC50) of each of curcumin, GO-Y199, and GO-Y206 against the colorectal cancer cell lines DLD-1 and HCT116 and the gastric cancer cell lines KATO III and H-111-TC was measured. The method is as described above.

[3] = system: gastric cancer cell line GCIY; experiment: Cell growth inhibitory activity, GCIY; type: cell-based
Experimental: [The source words this procedure for another cell line and reports this cell line under the same test.] as §2, §3

[4] = individual mice, 7 days after 1 mg iv

With COCOc1cc(/C=C/C(=O)CC(SCCOCCOCCOCCOCc2cn([C@@H]3O[C@H](CO)[C@@H](O[C@@H]4O[C@H](CO)[C@H](O)[C@H](O)[C@H]4O)[C@H](O)[C@H]3O)nn2)c2cc(OCOC)cc(OCOC)c2)cc(OCOC)c1 (stereo partly shown) [GO-Y199] the “Cre (mg/dL) Ave. ± SD” value (Safety and toxicity test; 7 days after 1 mg iv, control 0.24 ± 0.15) was 0.15 ± 0.02 mg/dL, the “T-Bil (mg/dL) Ave. ± SD” value (Safety and toxicity test; 7 days after 1 mg iv, control 0.47 ± 0.17) was 0.33 ± 0.19 mg/dL and the “AST (U/L) Ave. ± SD” value (Safety and toxicity test; 7 days after 1 mg iv, control 65.0 ± 9.1) was 62.0 ± 8.6 U/L. For the same molecule, the “hematology and blood chemistry vs control group” value (Safety and toxicity test; Tables 12 and 13) was “no significant difference”, the “body weight vs control group” value (Safety and toxicity test; after intravenous injection) was “no difference in body weight” and the “local finding in the tails” value (Safety and toxicity test; after tail vein injection) was “no local abnormal finding”. The “AST (U/L)” value (Safety and toxicity test; [4]) was 63 U/L and 72 U/L and 51 U/L, the “Cre” value (Safety and toxicity test; [4]) was 0.18 mg/dL and 0.14 mg/dL and 0.13 mg/dL and the “T-Bil” value (Safety and toxicity test; [4]) was 0.2 mg/dL (2×) and 0.6 mg/dL. The overall safety (Safety and toxicity test; mouse model) was “safe”, the “time for which the blood concentration is maintained” value [1] was 3 h and the “time after which GO-Y199 disappeared from the blood” value ([1]; serum HPLC) was 180 min. The “time until which the blood concentration rapidly decreased” value ([1]; serum HPLC) was 60 min, the Turbidity/μm (Turbidity measurement; Table 1, average turbidity corrected for final concentration (1.7-170 μm, per compound)) was 0.00041 NTU/μM and the “Relative Value (turbidity)” value (Turbidity measurement; Table 1, turbidity/μm relative to curcumin = 1) was 0.0014. For the same molecule, the “Turbidity (Relative Value)” value (Turbidity measurement; Table 3, relative to curcumin = 1) was 0.0014, the “Ave Turbidity (NTU)” value (Turbidity measurement; final conc. 170 μm in DDW) was 0.07 ± 0.05 NTU and the appearance of solution (Turbidity measurement; final concentration 50 μM in distilled water or DMEM with 10% fetal bovine serum, from DMSO) was “clear”. For the same molecule, the “proportion of cells expressing NF-kB (p65)” value (NF-kB (p65)) was 69.4±12.4%, the “fatty acid synthetase inhibitory effect” value (fatty acid synthetase) was “significant fatty acid synthetase inhibitory effect” and the IC50 ([2]; Table 4, 72 hours, read-out: IC50 KATO III) was 0.8 µM. For the same molecule, the IC50 ([2]; Table 6, read-out: IC50 (μM) KATO III) was 3.86 µM, the IC50 ([3]; Table 4, 72 hours) was 160 nM and the “GO-Y199 vs GO-Y030 (IC50 comparison), GCIY” value ([3]; Table 5, ratio of IC50) was 1.24. For the same molecule, the “GO-Y199 vs curcumin (IC50 comparison), GCIY” value ([3]; Table 5, ratio of IC50) was 0.03.
